From ChEMBL document CHEMBL1127929, “The synthesis and serine -lactamase inhibitory activity of some phosphonamidate analogues of dipeptides” (1994) come the findings set out here.

Assay [1] deals with T1, SHV-5 extended spectrum beta-lactamase (Escherichia coli) (UniProt Q6REX6).
T1 sequence (whole entry): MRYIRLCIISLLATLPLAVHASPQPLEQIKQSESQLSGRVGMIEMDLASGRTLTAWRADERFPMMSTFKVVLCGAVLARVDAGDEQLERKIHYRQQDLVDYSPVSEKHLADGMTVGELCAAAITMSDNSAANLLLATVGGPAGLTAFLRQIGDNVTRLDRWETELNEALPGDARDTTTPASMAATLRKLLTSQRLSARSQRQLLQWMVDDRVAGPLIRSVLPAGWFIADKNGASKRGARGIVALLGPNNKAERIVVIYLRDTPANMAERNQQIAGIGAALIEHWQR
In words: Compound was tested for the inhibitory activity against Escherichia coli SHV-5 serine beta-lactamase.

In assay [2] the target is Beta-lactamase (Enterobacter cloacae) (UniProt P05364). In words: Compound was tested for the inhibitory activity against Enterobacter cloacae P99 serine beta-lactamase.
Sequence of Beta-lactamase (Enterobacter cloacae) (P05364 21-381 limits assumed): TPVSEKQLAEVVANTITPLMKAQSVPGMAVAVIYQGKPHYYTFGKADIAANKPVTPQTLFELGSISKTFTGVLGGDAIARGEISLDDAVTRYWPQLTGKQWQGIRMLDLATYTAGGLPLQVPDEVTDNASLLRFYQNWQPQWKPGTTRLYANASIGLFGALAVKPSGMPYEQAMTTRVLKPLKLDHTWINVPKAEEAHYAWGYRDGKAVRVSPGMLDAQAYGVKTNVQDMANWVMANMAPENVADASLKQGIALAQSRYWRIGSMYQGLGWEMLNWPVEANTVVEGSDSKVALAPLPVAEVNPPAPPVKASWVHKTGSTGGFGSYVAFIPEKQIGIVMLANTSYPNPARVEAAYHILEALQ
The target in assay [3] is Beta-lactamase (Staphylococcus aureus) (UniProt P00807). In words: Inhibitory activity against Staphylococcus aureus penicillinase.
Sequence of Beta-lactamase (Staphylococcus aureus) (P00807 whole entry): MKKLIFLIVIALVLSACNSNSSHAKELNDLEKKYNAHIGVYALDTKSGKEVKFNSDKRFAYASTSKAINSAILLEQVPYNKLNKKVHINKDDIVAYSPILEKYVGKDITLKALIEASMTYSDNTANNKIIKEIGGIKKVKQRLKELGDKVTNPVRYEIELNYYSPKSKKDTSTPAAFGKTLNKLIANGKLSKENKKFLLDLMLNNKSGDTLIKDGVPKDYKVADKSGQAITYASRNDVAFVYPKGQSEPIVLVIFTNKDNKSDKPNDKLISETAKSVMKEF
The target of assay [4] is Beta-lactamase OXA-1 (Escherichia coli) (UniProt P13661). In words: Compound was tested for the inhibitory activity against Escherichia coli OXA-1 serine beta-lactamase.
Sequence of Beta-lactamase OXA-1 (Escherichia coli) (P13661 whole entry): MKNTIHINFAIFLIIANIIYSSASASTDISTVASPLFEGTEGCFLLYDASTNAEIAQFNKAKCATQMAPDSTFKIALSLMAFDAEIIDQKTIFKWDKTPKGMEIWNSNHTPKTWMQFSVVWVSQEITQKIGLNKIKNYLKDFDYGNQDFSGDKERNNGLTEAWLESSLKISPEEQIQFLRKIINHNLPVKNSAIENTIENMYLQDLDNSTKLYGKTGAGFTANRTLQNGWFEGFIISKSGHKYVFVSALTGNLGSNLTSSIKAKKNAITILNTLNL
A further assay concerns Proteus mirabilis. In words: Compound was tested for the inhibitory activity against Proteus mirabilis carbenicillinase.
For assay [5], the target named is T2, Beta-lactamase PSE-4 (Pseudomonas aeruginosa) (UniProt P16897).
T2 sequence (whole entry): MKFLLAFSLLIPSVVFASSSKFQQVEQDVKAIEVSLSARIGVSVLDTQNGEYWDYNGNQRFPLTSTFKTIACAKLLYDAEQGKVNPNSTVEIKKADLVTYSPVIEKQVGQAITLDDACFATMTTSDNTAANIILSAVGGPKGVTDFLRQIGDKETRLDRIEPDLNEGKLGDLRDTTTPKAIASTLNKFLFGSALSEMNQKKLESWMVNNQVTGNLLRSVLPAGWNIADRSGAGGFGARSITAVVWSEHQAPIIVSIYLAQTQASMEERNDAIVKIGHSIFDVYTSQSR
The experiment in a line: Compound was tested for the inhibitory activity against Pseudomonas aeruginosa PSE-4 serine beta-lactamase.

Assay [6] concerns the target Beta-lactamase TEM (Escherichia coli) (UniProt P62593). In words: Inhibitory activity against Escherichia coli TEM-1 serine beta-lactamase.
In assay [7] the target is Beta-lactamase (Enterobacter cloacae) (UniProt P05364). The experiment in a line: Minimum inhibitory concentration of 10 ug/ml compound in combination with amoxycillin against Enterobacter cloacae N-1 organism. In kind it is functional.
For assay [8] the target is unchanged.
Description: Minimum inhibitory concentration of 4 ug/ml compound in combination with amoxycillin against Enterobacter cloacae N-1 organism
Assay [9] concerns the target Beta-lactamase TEM (Escherichia coli) (UniProt P62593). In words: Minimum inhibitory concentration of 4 ug/ml compound in combination with amoxycillin against Escherichia coli E96P organism. In kind it is functional.
In assay [10] the test system is Staphylococcus aureus. In words: Minimum inhibitory concentration against Staphylococcus aureus MB9 organism. In kind it is functional.
The test system of assay [11] is Staphylococcus aureus. In words: Minimum inhibitory concentration of 10 ug/ml compound in combination with amoxycillin against Staphylococcus aureus MB9 organism. The class given is functional.
The subject of assay [12] is Staphylococcus aureus. In words: Antibacterial activity against Staphylococcus aureus MB9 organism, activity expressed as MIC(minimum inhibitory concentration). In kind it is functional.
The target in assay [13] is Beta-lactamase (Enterobacter cloacae) (UniProt P05364). The source holds these as a separate data set.
Description: Antibacterial activity against Enterobacter cloacae N-1 organism, activity expressed as MIC(minimum inhibitory concentration)
In assay [14] the target is Beta-lactamase TEM (Escherichia coli) (UniProt P62593).
Sequence of Beta-lactamase TEM (Escherichia coli) (P62593 whole entry): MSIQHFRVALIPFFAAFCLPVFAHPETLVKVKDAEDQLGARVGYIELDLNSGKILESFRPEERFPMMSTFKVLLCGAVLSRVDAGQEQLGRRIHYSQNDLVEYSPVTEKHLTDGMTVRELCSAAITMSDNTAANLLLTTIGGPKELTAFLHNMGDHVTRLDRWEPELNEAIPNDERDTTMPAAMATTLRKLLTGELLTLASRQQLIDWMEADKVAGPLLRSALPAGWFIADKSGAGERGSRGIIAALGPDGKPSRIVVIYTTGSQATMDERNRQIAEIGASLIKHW
Description: Antibacterial activity against Escherichia coli E96P organism, activity expressed as MIC(minimum inhibitory concentration)
Assay [15] has as its target Beta-lactamase (Enterobacter cloacae) (UniProt P05364). This is another data set of the same source.
Description: Minimum inhibitory concentration against Enterobacter cloacae N-1 organism
The subject of assay [16] is Staphylococcus aureus. In words: Minimum inhibitory concentration of 4 ug/ml compound in combination with amoxycillin against Staphylococcus aureus MB9 organism. The class given is functional.
Assay [17] has as its target Beta-lactamase (Enterobacter cloacae) (UniProt P05364). In words: Minimum inhibitory concentration of 10 ug/ml compound in combination with amoxycillin against Enterobacter cloacae N-1 organism,. The class given is functional.

SMILES strings stand for the structures. Converted amounts (≈) assume the structure as drawn.

Turning to `O=C(O)CCNP(=O)(O)CNC(=O)OCc1ccccc1`, the ID50 in assay [1] was 33 µM; in [2] it was 0.87 µM; in [3], above 25 µM; in [4], 14 µM; in the assay with Proteus mirabilis, above 100 µM; in [5] it was above 100 µM. Besides, the ID50 in [6] is above 50 µM.
Consider `O=C(NCP(=O)(O)N[C@@H](Cc1ccccc1)C(=O)O)OCc1ccccc1`, for which the ID50 was above 100 µM in assay [1]; 0.75 µM in [2]; above 33 µM in assay [3]; 60 µM in assay [4]; above 100 µM with Proteus mirabilis; 15 µM in [5]. The molecule further yielded an ID50 in assay [6] above 50 µM.
In the case of `CC1(C)S[C@@H]2[C@H](NC(=O)C(N)c3ccc(O)cc3)C(=O)N2[C@H]1C(=O)O.O=C(NCP(=O)(O)N[C@H](Cc1ccccc1)C(=O)O)OCc1ccccc1`, the MIC in [7] was 128 µg/mL.
Regarding `O=C(O)CC(NP(=O)(O)CNC(=O)OCc1ccccc1)c1ccccc1` (stereo unspecified), the ID50 in assay [1] was 63 µM; in assay [2] it was 0.87 µM; in assay [3], above 35 µM; in [4], 46 µM; in the assay with Proteus mirabilis, above 100 µM; in [5], 83 µM. This molecule also gave an ID50 in assay [6] above 50 µM.
As for `COP(=O)(CNC(=O)OCc1ccccc1)N1CCC[C@@H]1C(=O)O` (stereo partly specified), the ID50 in [2] was 67 µM; in [3] it was above 100 µM; in assay [6] it was above 100 µM.
Turning to `CC1(C)S[C@@H]2[C@H](NC(=O)C(N)c3ccc(O)cc3)C(=O)N2[C@H]1C(=O)O.O=C(O)CC(NP(=O)(O)CNC(=O)OCc1ccccc1)c1ccccc1` (stereo unspecified), the MIC in [7] was found to be 16 µg/mL.
Take `CC1(C)S[C@@H]2[C@H](NC(=O)[C@H](N)c3ccc(O)cc3)C(=O)N2[C@H]1C(=O)O.O=C(O)[C@H]1/C(=C/CO)O[C@@H]2CC(=O)N21` [listing 1 of 2 here]: the MIC was determined as 256 µg/mL in [8] and 16 µg/mL in [9].
As for `O=C(O)CNP(=O)(O)CNC(=O)OCc1ccccc1`, the ID50 was above 100 µM in assay [1]; 2.29 µg/mL in [2]; above 100 µg/mL in [3]; 30 µM in assay [4]; above 100 µM with Proteus mirabilis; above 100 µM in assay [5]. This molecule also displayed an ID50 in assay [6] above 100 µg/mL.
On to `CC1(C)S[C@@H]2[C@H](NC(=O)[C@H](N)c3ccc(O)cc3)C(=O)N2[C@H]1C(=O)O` [AMOXICILLIN], for which, in the assay on Staphylococcus aureus [10], the MIC was 256 µg/mL (≈ 701 µM).
For `CC1(C)S[C@@H]2[C@H](NC(=O)C(N)c3ccc(O)cc3)C(=O)N2[C@H]1C(=O)O.O=C(NCP(=O)(O)NC(C(=O)O)c1ccccc1)OCc1ccccc1` (stereo unspecified), the MIC in [7] is 32 µg/mL.
Turning to `CC1(C)S[C@@H]2[C@H](NC(=O)C(N)c3ccc(O)cc3)C(=O)N2[C@H]1C(=O)O.O=C(NCP(=O)([O-])N[C@H](Cc1ccccc1)C(=O)[O-])OCc1ccccc1.[Li+].[Li+]`, the MIC in the assay on Staphylococcus aureus [11] is 64 µg/mL.
Turning to `O=C(O)[C@H]1/C(=C/CO)O[C@@H]2CC(=O)N21` [CLAVULANIC ACID], the ID50 was 0.013 µM in assay [1]; 310 µM in [2]; 0.38 µM in assay [3]; 3.4 µM in [4]; 0.51 µM with Proteus mirabilis; 0.235 µM in [5]. The ID50 in assay [6] came out at 0.315 µM. Also, the MIC (with Staphylococcus aureus [12]; in assay [13]; in assay [14]) was 32 µg/mL (≈ 161 µM) each time.
Regarding `COP(=O)(CNC(=O)OCc1ccccc1)N1CCC[C@H]1C(=O)O` (stereo partly specified), the ID50 in assay [2] was 54 µM; in assay [3], above 100 µM; in assay [6], above 100 µM.
`O=C(NCP(=O)(O)N[C@H](Cc1ccccc1)C(=O)O)OCc1ccccc1`: the ID50 in assay [1] was above 100 µM; in assay [2], 3.8 µM; in [3], above 100 µM; in assay [4], above 100 µM; in the assay with Proteus mirabilis it was above 100 µM; in assay [5], above 100 µM. In assay [6], this molecule registered an ID50 above 100 µM.
For `CC1(C)S[C@@H]2[C@H](NC(=O)C(N)c3ccc(O)cc3)C(=O)N2[C@H]1C(=O)O.O=C(NCP(=O)([O-])NC(C(=O)[O-])c1ccccc1)OCc1ccccc1.[Li+].[Li+]` (stereo unspecified), the MIC in the assay with Staphylococcus aureus [11] was 64 µg/mL.
With `CC1(C)S[C@@H]2[C@H](NC(=O)C(N)c3ccc(O)cc3)C(=O)N2[C@H]1C(=O)O.O=C(NCP(=O)(O)N[C@@H](Cc1ccccc1)C(=O)O)OCc1ccccc1`, the MIC in assay [7] turned out to be 128 µg/mL.
Consider `CC1(C)S[C@@H]2[C@H](NC(=O)C(N)c3ccc(O)cc3)C(=O)N2[C@H]1C(=O)O.O=C([O-])CCNP(=O)([O-])CNC(=O)OCc1ccccc1.[Li+].[Li+]` (stereo partly specified), for which the MIC in the assay with Staphylococcus aureus [11] was 32 µg/mL.
For the molecule `O=C(O)CNCP(=O)(O)CNC(=O)OCc1ccccc1`, the ID50 in [2], in assay [3] and in assay [6] was above 100 µM throughout.
Molecule `CC1(C)S[C@@H]2[C@H](NC(=O)[C@H](N)c3ccc(O)cc3)C(=O)N2[C@H]1C(=O)O` yielded an MIC in assay [15] of 256 µg/mL (≈ 701 µM).
For `CC1(C)S[C@@H]2[C@H](NC(=O)C(N)c3ccc(O)cc3)C(=O)N2[C@H]1C(=O)O.O=C([O-])CC(NP(=O)([O-])CNC(=O)OCc1ccccc1)c1ccccc1.[Li+].[Li+]` (stereo unspecified), in the assay with Staphylococcus aureus [11], the MIC worked out at 8 µg/mL.
Turning to `O=C(NCP(=O)(O)N[C@@H](C(=O)O)c1ccccc1)OCc1ccccc1`, the ID50 is above 100 µM in assay [1]; 4.16 µM in assay [2]; above 100 µM in assay [3]; above 100 µM in [4]; above 100 µM in the assay on Proteus mirabilis; above 100 µM in [5]. Besides, the ID50 in [6] is above 100 µM.
As for `CC1(C)S[C@@H]2[C@H](NC(=O)C(N)c3ccc(O)cc3)C(=O)N2[C@H]1C(=O)O.O=C([O-])CNP(=O)([O-])CNC(=O)OCc1ccccc1.[Li+].[Li+]` (stereo partly specified), the MIC in the assay with Staphylococcus aureus [11] is 64 µg/mL.
With `CC1(C)S[C@@H]2[C@H](NC(=O)C(N)c3ccc(O)cc3)C(=O)N2[C@H]1C(=O)O.O=C(NCP(=O)([O-])N[C@@H](Cc1ccccc1)C(=O)[O-])OCc1ccccc1.[Li+].[Li+]`, the MIC with Staphylococcus aureus [11] is 64 µg/mL.
Consider `CC1(C)S[C@@H]2[C@H](NC(=O)C(N)c3ccc(O)cc3)C(=O)N2[C@H]1C(=O)O.O=C(O)CCNP(=O)(O)CNC(=O)OCc1ccccc1` (stereo partly specified), for which the MIC in assay [7] was 44 µg/mL.
Turning to `CC1(C)S[C@@H]2[C@H](NC(=O)[C@H](N)c3ccc(O)cc3)C(=O)N2[C@H]1C(=O)O.O=C(O)[C@H]1/C(=C/CO)O[C@@H]2CC(=O)N21` [listing 2 of 2 here], the MIC in the assay with Staphylococcus aureus [16] was found to be 0.12 µg/mL.
For the molecule `CC1(C)S[C@@H]2[C@H](NC(=O)C(N)c3ccc(O)cc3)C(=O)N2[C@H]1C(=O)O.O=C(O)CNP(=O)(O)CNC(=O)OCc1ccccc1` (stereo partly specified), the MIC in assay [17] stood at 32 µg/mL.
`COP(=O)(CNC(=O)OCc1ccccc1)N1CSC(C)(C)[C@@H]1C(=O)O` (stereo partly specified): the ID50 in assay [2], in [3] and in assay [6] was above 100 µM each time.
